Five compounds from US20050221328A1, “Inhibitors of inflammatory gene activity and cholesterol biosynthesis” (Wyeth, priority 2002, published 2005) can be followed below.

Data set [1] has as its system hepatic inflammatory gene expression. Here is the method: Ovariectornized C57BL/6 mice (16-20g) (Taconic) were separated into groups of 8. After 5-7 days of recuperation, the mice were fed a casein based diet (#8117, Test Diet, Richmond, IN) for five days. […] At the end of the experimental period, the liver was collected for RNA analysis.
Liver total RNA was prepared using Trizol reagent (BRL) and quantitated by real time RT-PCR using an ABI PRISM 7700 Detection System according to the manufacturer's protocol (Applied Biosystem). The data was analyzed using the Sequence Dector v1.7 software (Applied Biosystems) and normalized to GAPDH using Applied Biosystems primer set.
Feeding C57BL/6 mice a high fat diet containing cholate has been shown previously to induce inflammatory gene expression in the mouse liver after 3-5 weeks (Liao et al '93 JCI 91:2572, Evans et al. '01 Circ Res 89:823 & Miyake et al '00 JBC 275:21805).
To determine whether signaling via FXR was necessary to result in inflammatory gene expression, 1% UDCA was supplemented into the chow diet.
In particular, referring to FIG. 21a-d, C57BL/6 mice were fed either a chow, atherogenic or high fat diet (atherogenic diet without sodium cholate) as indicated. After 5 weeks, hepatic mRNA levels of the indicated genes were determined by real time PCR. […] After 5 days, hepatic mRNA levels of the indicated genes were determined by real time PCR. Data are reported as mean±SEM for each group. Referring to FIG. 23a-b: C57BL/6 mice were fed a chow diet supplemented with 1% ursodeoxycholic acid (UDCA). After 5 days, hepatic mRNA levels of the indicated genes were determined by real time PCR. […] Data are reported as mean±SEM for each group.

Data set [2] concerns Fnk, JAB, LIX, bcl-3 and SHP. The data set is described as follows: Liver expression of Fnk, JAB, LIX, bcl-3 and SHP by realtime PCR after estrogen receptor ligand pretreatment and IL-1β. Particulars: mice; 100 ug/kg/day EE, 1 or 10 mg/kg/day E2, 30 mg/kg/day genistein, 5 mg/kg/day raloxifene, 10 mg/kg/day ICI182780; plus IL-1β. The method, then:
Referring to FIG. 3a, to distinguish these two mechanisms, the IL-1β fold induction of Fnk, JAB, LIX, and bcl-3 and the IL-1β fold repression of SHP was quantified in animals pretreated with vehicle (black bars) or 100 ug/kg/day EE (grey bars). Liver RNA levels of each gene (mean +/−SEM) were determined by realtime PCR of RNA from each individual animal.
Referring to FIGS. 4a, 4b, 4c, 4d and 4e, experiments were conducted to determine whether EE blocks IL-1β induction of gene expression by an estrogen receptor (ER) dependent mechanism. Estrogens can regulate gene expression by many mechanisms including ER independent pathways such as antioxidant mechanisms. […] Liver expression levels of Fnk, JAB, LIX, bcl-3 and SHP (mean +/−SEM) were determined by realtime PCR.
Referring to FIGS. 5a, 5b, 5c, 5d, and 5e, experiments were conducted to determine whether ERα is required for EE regulation of gene expression in the liver. To determine whether ERα or ERβ mediated the EE effects on IL-1β gene expression in the liver, C57BL/6 wild type mice, C57BL/6 ERαKO mice, or 129 ERβKO mice were pretreated with vehicle (black bars) or […] EE (gray bars) for 5 days followed by a 1 hour treatment with IL-1β. Liver expression levels of Fnk, JAB, LIX, bcl-3, and SHP (mean +/−SEM) were quantified by realtime PCR, with expression in animals receiving vehicle+PBS defined as 1.0.

The subject of data set [3] is SHP. The data set is described as follows: Regulation of SHP expression in mouse liver, six weeks treatment, real time PCR. The format is in vivo. Here is the method: Several experiments were conducted to investigate the regulation of SHP expression, as follows. Referring to FIG. 9, ERα regulation of SHP expression in mouse liver was studied. […] Liver expression of SHP was monitored by real time PCR, with normalization for GAPDH expression. […] ICI182780 inhibited this induction.
(Quantitative PCR measures a nucleic acid by following its amplification.)

The subject of data set [4] is human SHP promoter. The data set is described as follows: hSHP promoter luciferase reporter in HepG2 or 293 cells cotransfected with human ERα. In kind it is cell-based. The note with it: 293 cells with human ERα; for SHP promoter activity, compound alone: 10 nM E2 or 1 uM compound, 24 hours. Here is the method: Referring to FIGS. 11a and 11b, ERα regulation of hSHP promoter activity in human cells was examined. Human HepG2 or 293 cells were cotransfected with a control SV40 driven β-galactosidase plasmid, a luceriferase plasmid driven by 1.4 kb of the human SHP promoter, and an expression plasmid encoding either no protein or human ERα. […] Cell extracts were then analyzed for luciferase activity normalized for β-galactosidase activity.
Referring to FIGS. 12a, 12b, and 12c, ERα regulation of hSHP promoter activity in 293 cells was examined. Referring to FIGS. 12a and 12b, 293 cells were cotransfected with a control SV4O driven […] plasmid, a luceriferase plasmid driven by either 1.4 kb of the human SHP promoter or a synthetic 2×ERE/TK promoter, and an expression plasmid for human ERα. […] Cell extracts were then analyzed for luciferase activity with normalization for β-galaetosidase activity.
For orientation: In a reporter assay the amount or activity of a reporter protein is the signal.

The subject of data set [5] is HepG2 cells. The data set is described as follows: Gene expression in HepG2 cells treated 24 hr with CDCA or GW 4064. The format is cell-based, human. Particulars: HepG2, 24 hr. The method, then: HepG2 cells were maintained in growth media at 37° C. in a 5% CO2 incubator. The cells were seeded in deficient growth media (phenol red free DMEM (Gibco BRL) supplemented with heat-inactivated 10% FBS, 1% Glutamax, 1% MEM non-essential amino acids, 100 U/ml penicillin and 100 μg/ml streptomycin) at 4-5×10^5 cells per well in a 6 well dish (Falcon). The cells were then placed into serum deficient media for 24 hr before addition of the compounds for an additional 24 hrs. The cells were then harvested for RNA analysis.
To further investigate the possibility that bile acid signaling through FXR can promote inflammatory gene expression, experiments were conducted in the hepatocyte cell line, HepG2. […] HepG2 cells express a number of inflammatory genes including ICAM-1 and M-CSF constitutively (Stonans et al '99 Cytokine 11:151). […] As positive controls, the induction of SHP mRNA and the repression of cyp7a were confirmed.
Referring to FIG. 24a-b, HepG2 cells were treated for 24 hr with increasing concentrations of chenodeoxycholic acid (CDCA). […] Data are reported as mean±SEM for each group. C57BL/6 mice. […] Data are reported as mean±SEM for each group.

Setting [6] is: C57BL/6 mice, chow with CA 0.01-1.0%, 5 days.
The mark [7] stands for this setting: CDCA 1-100 uM or GW 4064 1-1000 nM.

As to `C[C@H](CCC(=O)O)[C@H]1CC[C@H]2[C@@H]3[C@H](O)C[C@@H]4C[C@H](O)CC[C@]4(C)[C@H]3C[C@H](O)[C@]12C` [CA, cholic acid], in data set [1] (setting [6]), the “hepatic ICAM-1 mRNA” value is “dose dependent induction”, the “induction of hepatic RANTES mRNA” value turned out to be 1.75 fold, the “induction of hepatic TNFα mRNA” value is on record as 4 fold and the “induction of hepatic VCAM-1 mRNA” value was found to be 3 fold. In addition, the “CA supplementation sufficient to induce inflammatory gene expression” value in data set [1] (chow fed mice, acute exposure) is given as 0.3%. In addition, in data set [1] (mice fed 1% CA or UDCA, 5 days), the “induction of hepatic SHP expression” value is recorded as “only observed with CA”.

Take `C[C@]12CC[C@@H]3c4ccc(O)cc4C[C@@H](CCCCCCCCC[S+]([O-])CCCC(F)(F)C(F)(F)F)[C@H]3[C@@H]1CC[C@@H]2O` (stereo partly drawn) [ICI-182780]: the “effect on regulation of liver Fnk, JAB, LIX, bcl-3 and SHP expression vs IL-1β alone” value in data set [2] is reported as “no effect”. Besides, the “effect on E2 induction of liver SHP mRNA” value in data set [3] (WT mice, 10 ug/kg/day E2+5 mg/kg/day ICI182780, six weeks) is reported as “inhibited”. Besides, in data set [4], the “SHP promoter activity, compound alone” value is “inactive alone”. In data set [4] (1 uM compound plus 10 nM E2), the “effect on E2 activity at SHP promoter” value is recorded as “antagonized”.

In the case of `C[C@H](CCC(=O)O)[C@H]1CC[C@H]2[C@@H]3[C@@H](O)C[C@@H]4C[C@H](O)CC[C@]4(C)[C@H]3CC[C@]12C` [UDCA, ursodeoxycholic acid], in data set [1] (mouse, in vivo), the cyp3a expression entry was “induced” and the cyp7a expression result is recorded as “repress”.

For the compound `CC/C(=C(\c1ccccc1)c1ccc(OCCN(C)C)cc1)c1ccccc1` [tamoxifen], in data set [3] (ovariectomized wildtype mice, sc six weeks, 10 ug/kg/day E2, 5 mg/kg/day tamoxifen, 5 mg/kg/day PPT), the “liver SHP mRNA levels, WT animals” value is “induced”. The “SHP promoter activity, compound alone” value in data set [4] is listed as “stimulated”.

On to `C[C@H](CCC(=O)O)[C@H]1CC[C@H]2[C@@H]3[C@H](O)C[C@@H]4C[C@H](O)CC[C@]4(C)[C@H]3CC[C@]12C` [CDCA, chenodeoxycholic acid], for which, in data set [5] (setting [7]), the ICAM-1 expression result is “induced in a dose dependent manner” and the M-CSF expression result was “induced in a dose dependent manner”. Moreover, in data set [5] (positive control), the “SHP mRNA” value was “induction” and the cyp7a expression entry was “repression”.
